The text below walks through data of ChEMBL document CHEMBL5143732 (J Med Chem, 2022).

The structures appear in SMILES notation. Converted amounts (≈) assume the structure as drawn. The source made the active and inactive calls. The rule behind the calls is not given here.

Data set [1] has as its system Lipid bilayer. The data set can be described thus: Induction of membrane disruption in inner membrane mimic POPC/ergosterol (10:1) large unilamellar vesicles assessed as change in morphology by transmission electron microscopic analysis. Type of data set: cell membranes.
Data set [2] relates to Lipid bilayer. In words: Induction of membrane disruption in inner membrane mimic POPC/ergosterol (10:1) large unilamellar vesicles assessed as change in liposomal integrity by transmission electron microscopic analysis. Type of data set: cell membranes.
Data set [3] is described as follows: AUClast in ICR (CD-1) mouse at 1 mg/kg, iv measured upto 24 hrs. Type of data set: ADME, organism-based. Also on record: dose 1 mg/kg, time < 24 hrs, route iv. As to conditions: ICR (CD-1), in vivo.
The nature of data set [4]: Elimination half life in ICR (CD-1) mouse at 1 mg/kg, iv measured upto 24 hrs. Type of data set: ADME, organism-based. The conditions noted are these: in vivo, read-out: beta t1/2 (converted).
Data set [5] can be described thus: Acute toxicity in iv dosed SPF ICR mouse assessed as maximum tolerated measured for 14 days. Type of data set: organism-based. The conditions noted are these: in vivo, dose 30 mg/kg, time 14 day.
The nature of data set [6]: Observed MRT infinity in ICR (CD-1) mouse at 1 mg/kg, iv measured upto 24 hrs. Type of data set: ADME, organism-based. The conditions noted are these: in vivo.
Data set [7] is described as follows: Observed volume of distribution at steady state in ICR (CD-1) mouse at 1 mg/kg, iv measured upto 24 hrs. Type of data set: ADME, organism-based. The conditions noted are these: in vivo, read-out: Vdss.
Data set [8] can be described thus: Therapeutic index ratio of MTD for acute toxicity in iv dosed SPF ICR mouse to ED50 for antifungal activity against Candida albicans ATTCC 14053 infected in SPF kunming mouse. Type of data set: organism-based. As to conditions: in vivo, read-out: TI.
A short description of data set [9]: Observed clearance in ICR (CD-1) mouse at 1 mg/kg, iv measured upto 24 hrs. On the set-up: dose 1 mg/kg, time < 24 hrs, route iv. Type of data set: ADME, organism-based. The conditions noted are these: in vivo, route iv, dose 1 mg/kg, time < 24 hrs, read-out: CL.
Data set [10] concerns Candida albicans. In words: Antifungal activity against Candida albicans ATTCC 14053 infected in SPF Kunming mouse assessed as increase in mouse survival pre-infected for 1 hr followed by compound addition and measured after 7 to 14 days. Type of data set: functional. As to conditions: time 7-14 day.
Data set [11] is described as follows: Observed AUC infinity in ICR (CD-1) mouse at 1 mg/kg, iv measured upto 24 hrs. Type of data set: ADME, organism-based. On the set-up: dose 1 mg/kg, time < 24 hrs, route iv. As to conditions: ICR (CD-1), in vivo.
Data set [12] relates to Pichia kudriavzevii. In words: Antifungal activity against Candida krusei ATCC 6258 assessed as inhibition of fungal growth measured after 48 hrs by CLSI based agar dilution method. Type of data set: functional. In general terms: In agar dilution the substance is mixed into plates at graded concentrations.
The subject of data set [13] is Candida albicans. The data set can be described thus: Antifungal activity against Candida albicans assessed as inhibition of fungal growth measured after 48 hrs by CLSI based agar dilution method. Type of data set: functional.
For another data set, the system named is Candida parapsilosis. The data set can be described thus: Antifungal activity against Candida parapsilosis assessed as inhibition of fungal growth measured after 48 hrs by CLSI based agar dilution method. Type of data set: functional. As to conditions: Lodderomyces parapsilosis.
For a further data set, the system named is Cryptococcus neoformans. In words: Antifungal activity against Cryptococcus neoformans ATCC 32609 assessed as inhibition of fungal growth measured after 48 hrs by CLSI based agar dilution method. Type of data set: functional.
The nature of data set [14]: Hemolytic activity in human RBC measured after 1 hr. Type of data set: toxicity, cell-based, Erythrocyte. The conditions noted are these: red blood cells (erythrocytes).
A further data set deals with Candida tropicalis. The data set can be described thus: Antifungal activity against Candida tropicalis assessed as inhibition of fungal growth measured after 48 hrs by CLSI based agar dilution method. Type of data set: functional.
The subject of data set [15] is Pichia kudriavzevii. The data set can be described thus: Antifungal activity against Candida krusei assessed as inhibition of fungal growth measured after 48 hrs by CLSI based agar dilution method. Type of data set: functional.

`CNCC(=O)N[C@@H]1[C@H](O)[C@H](O[C@H]2/C=C/C=C/C=C/C=C/C=C/C=C/C=C/[C@H](C)[C@@H](O)[C@@H](C)[C@H](C)OC(=O)C[C@H](O)C[C@H](O)CC[C@@H](O)[C@H](O)C[C@H](O)C[C@]3(O)C[C@H](O)[C@@H](C(=O)NCCN)[C@H](C2)O3)O[C@H](C)[C@H]1O`: the result in the data set with Lipid bilayer [1] and in the data set with Lipid bilayer [2] was Active.
The term AUC(0-t) denotes the area under the concentration-time curve up to a stated or last time point. Lower therefore signals low exposure. What is called MTD is the largest dose that counted as tolerated. The MRT inf is the average time that molecules of a dose stay in the body. As usually defined, the ED50 is the midpoint of the dose-response relation. In general, AUC(0-inf) refers to the area under the concentration-time curve extrapolated to infinity. Take `C[C@@H]1[C@H](O)[C@@H](C)/C=C/C=C/C=C/C=C/C=C/C=C/C=C/[C@H](O[C@@H]2O[C@H](C)[C@@H](O)[C@H](N)[C@@H]2O)C[C@@H]2O[C@](O)(C[C@@H](O)C[C@@H](O)[C@H](O)CC[C@@H](O)C[C@@H](O)CC(=O)O[C@H]1C)C[C@H](O)[C@H]2C(=O)NCCN`: in data set [3], the AUC(0-t) at 24 h amounted to 11600 ng·h/mL. Besides, the half-life in [4] was 17.5 h. In data set [5], the MTD at 336 h came out at 7.5 mg/kg. Also, the MRT inf in data set [6] worked out at 25.3 h. Also, the Vd in [7] turned out to be 1.33 L/kg. Moreover, the selectivity ratio in data set [8] was 23.4. Also, in [9], the clearance was 0.896 mL/min/kg. Besides, the ED50 in the data set on Candida albicans [10] stood at 0.32 mg/kg. In data set [11], this compound displayed an AUC(0-inf) of 18900 ng·h/mL.
In general, MIC refers to the least concentration at which growth counts as inhibited. For orientation: HC50 means the concentration giving 50% haemolysis. The compound `CNCC(=O)N[C@@H]1[C@H](O)[C@H](O[C@H]2/C=C/C=C/C=C/C=C/C=C/C=C/C=C/[C@H](C)[C@@H](O)[C@@H](C)[C@H](C)OC(=O)C[C@H](O)C[C@H](O)CC[C@@H](O)[C@H](O)C[C@H](O)C[C@]3(O)C[C@H](O)[C@@H](C(=O)N4CCN(C(C)(C)CO)CC4)[C@H](C2)O3)O[C@H](C)[C@H]1O` registered an AUC(0-t) at 24 h in data set [3] of 10700 ng·h/mL. In addition, in data set [4], the half-life is 16.4 h. Besides, the mean residence time (MRT inf) in data set [6] worked out at 25.4 h. Further, the MIC is 4 µg/mL (≈ 3.52 µM) in the data set with Pichia kudriavzevii [12]; 1 µg/mL (≈ 0.881 µM) in the data set with Candida albicans [13]; 1 µg/mL (≈ 0.881 µM) in the data set on Candida parapsilosis; 1 µg/mL (≈ 0.881 µM) with Cryptococcus neoformans; 1 µg/mL (≈ 0.881 µM) with Candida tropicalis; 1 µg/mL (≈ 0.881 µM) in the data set on Pichia kudriavzevii [15]. In addition, in data set [7], the Vd was 1.44 L/kg. In addition, in data set [14], the HC50 at 1 h came to 50.7 µM. The clearance in data set [9] came out at 0.95 mL/min/kg. This compound also displayed an AUC(0-inf) in data set [11] of 17700 ng·h/mL.
